Measured values reported in patent publication US12103916B2, “Antifungal compounds” (University of Kentucky Research Foundation, priority 2016, dated 2024).
Where two headings read alike, the source gives them in different places. Marks after values point to notes of the source that are not given here.

Experiments:
[1] = system: C. albicans ATCC MYA-2876(S); experiment: MIC determination, strain C; assay type: cell-based, Candida albicans; conditions: Candida albicans
Protocol: (§1) The antifungal activity of our new azole compounds 1-9 and 24-41 was first evaluated against a panel of seven Candida albicans strains (A-G), three non-albicans Candida strains […], and three Aspergillus strains (K-M) in a concentration range of 0.03-31.2 μg/mL (Table 1). […] For all of our azole derivatives we report their MIC-0 values against C. albicans ATCC 10231 (strain A) and all Aspergillus strains (K-M), which correspond to complete growth inhibition of these fungi. […] The commercially available antifungals AmB, FLC, ITC, POS, and VOR were used as reference drugs for comparison. The MIC values presented for these five control drugs were either tested herein or correspond to our previously published data^5, 16 as indicated in Table 1.
(§2) Antifungal activity in the absence or presence of serum. The antifungal activity of the newly prepared alkylated piperazine/morpholine-azole hybrids 16-28, of intermediate 14 that we used to verify that only final compounds exert antifungal activity, as well as that of alkylated piperazine/morpholine derivatives 1-10 were first evaluated against a panel of seven C. albicans (ATCC 10231 (A), ATCC 64124(R) (B), ATCC MYA-2876(S) (C), ATCC 90819(R) (D), ATCC MYA-2310(S) (E), ATCC MYA-1237(R) (F), and ATCC MYA-1003(R) (G)), three non-albicans Candida (C. glabrata ATCC 2001 (H), C. krusei ATCC 6258 (I), and C. parapsilosis ATCC 22019 (J)), and three Aspergillus (A. flavus ATCC MYA-3631 (K), A. nidulans ATCC 38163 (L), and A. terreus ATCC MYA-3633 (M)) strains using a concentration range of 0.03-31.3 μg/mL (Table 2).
(§3) Commercially available antifungal agents such as AmB, CAS, FLC, and VOR were used as positive controls for comparison. […] It is important to note that all comparisons to follow will be done by using the MIC values reported in μg/mL as the data were collected that way. However, we also present in parentheses in Table 2 the corresponding values in micromolar.
(§4) We used the commercially available antifungal agents such as AmB, caspofungin (CAS), FLC, and VOR as positive controls for comparison. For derivatives 5-16 as well as the reference drugs AmB and CAS, we reported MIC-0 values, which correspond to no visible growth. […] In this manuscript, we performed all activity comparisons by using the MIC values reported in μg/mL (Note: the corresponding MIC values are also provided in μM into parentheses in Tables 1, 2, S1, and S2).

[2] = system: Candida albicans ATCC 10231; conditions: Table 1; strain A; control azoles FLC, ITC, POS, VOR; previously reported (refs 5, 16); cited from earlier work
[3] = system: Candida glabrata ATCC 2001; experiment: MIC determination, strain H; assay type: cell-based; conditions: Nakaseomyces glabratus, ATCC2001
Protocol: as §1, §2, §3, §4

[4] = system: C. albicans ATCC MYA-2310(S); experiment: MIC determination, strain E; assay type: cell-based, Candida albicans; conditions: Candida albicans
Protocol: as §1, §2, §3, §4

[5] = system: ergosterol biosynthetic pathway (sterol 14α-demethylase) in C. albicans ATCC 10231 (strain A); experiment: Sterol composition by GC-MS, strain A; assay type: cell-based, Candida albicans
Excerpt: FIG. 7A-FIG. 7H includes FIG. 7A. A simplified ergosterol biosynthetic pathway and products resulting from inhibition of ERG11. FIG. 7B-G. include GC-MS chromatograms of the sterols extracted from untreated and antifungals treated C. albicans strains. […] The peaks are for lanosterol (1), ergosterol (2), eburicol (3), 14-alpha-methyl ergosta 8,24(28)-dien-3-beta,6-alpha-diol (4), and unknown sterols (5 and 6). FIG. 7H is a table summarizing the percentage of each sterol from panels B-G.
FIG. 13A. A simplified ergosterol biosynthetic pathway and products resulting from inhibition of ERG11. FIG. 13B-FIG. 13F. GC-MS chromatograms of the sterols extracted from untreated and antifungal-treated C. albicans ATCC 10231 (strain A). […] The peaks in these chromatograms are for lanosterol (1), ergosterol (2), eburicol (3), 14α-methyl ergosta-8,24(28)-dien-3β,6α-diol (4), and three unknown sterols (5-7). FIG. 13G includes a table summarizing the percentage of each sterol from panels B-F.
No drug controls were also performed (FIGS. 7D and G).
Determination of sterol composition in c. albicans in the presence and absence of drugs. […] By using gas chromatography-mass spectrometry (GC-MS), we investigated the potential of the synthetic compounds to exert their antifungal activity by inhibiting the sterol 14α-demethylase enzyme of the ergosterol biosynthetic pathway (FIG. 13). […] A no drug control was also performed (FIG. 13A).
Since out of our compounds displaying antifungal activity only compound 8 caused membrane disruption of C. albicans ATCC 10231 (strain A) in the membrane permeabilization assay (section 2.6), we decided to explore by using gas chromatography-mass spectrometry (GC-MS) the effect of compounds 8 and 9 on sterol composition during ergosterol biosynthesis (the mechanism of action of other conventional azoles). […] We also used VOR at 0.12 μg/mL and no drug control for comparison.

Candida krusei ATCC 6258 [6] = experiment: MIC determination, strain I; assay type: cell-based; conditions: Pichia kudriavzevii, ATCC6258
Protocol: as §1, §2, §3, §4

Candida krusei ATCC 6258 [7] = conditions: Table 1; strain I; control azoles; previously reported (refs 5, 16); cited from earlier work
[8] = read-out: MIC (MIC-2), in parentheses
[9] = Ex.2 series, VOR 0.12, 20 0.48, 26 0.975 μg/mL
[10] = Ex.3 series, VOR 0.12, 8 and 9 at sub-MIC […] and 0.975 μg/mL

C[C@@H](c1ncncc1F)[C@](O)(Cn1cncn1)c1ccc(F)cc1F [VOR, voriconazole]
MIC ([1]; read-out: MIC (MIC-2)): 1.95 µg/mL | MIC [1, 8]: 5.6 µM | MIC (MIC-2) [2]: 0.24^c μg/mL | MIC ([3]; read-out: MIC (MIC-2)): 0.06 µg/mL | MIC [3, 8]: 0.17 µM | MIC ([4]; read-out: MIC (MIC-2)): 0.975 µg/mL | MIC [4, 8]: 2.8 µM | ergosterol (2), percentage of sterols ([5]; Ex.2 series, FLC 1.95, VOR 0.12, 20 0.48, 26 0.975 μg/mL): 64.93% | eburicol (3), percentage of sterols [5, 9]: 2.14% | lanosterol (1), percentage of sterols [5, 9]: 18.49% | eburicol (3), percentage of sterols [5, 10]: 1.73% | ergosterol (2), percentage of sterols [5, 10]: 50.80% | lanosterol (1), percentage of sterols [5, 10]: 15.21% | MIC (Candida krusei ATCC 6258 [6]; read-out: MIC (MIC-2)): 0.12 µg/mL | MIC (Candida krusei ATCC 6258 [6]; [8]): 0.34 µM | MIC (MIC-2) (Candida krusei ATCC 6258 [7]): 0.12^c μg/mL
